The test system of series [1] is cochlear hair cells of Rosa26-tdTomato mice. Nature of the series: in vivo delivery of Cre recombinase into mouse neonatal cochlea (tdTomato recombination). As for the experimental part: 0.4 μL of 50 μM+36 GFP-Cre or aurein 1.2-+36 GFP-Cre were injected into the scala media. […] Inner hair cells (IHC), outer hair cells (OHC) and supporting cells in the sensory epithelium (SE) were imaged for the presence of tdTomato, which is only expressed following Cre-mediated recombination. Hair cells were labeled with antibodies against the hair-cell marker Myo7a.
P1-2 Gt(ROSA)26Sor^tm14(CAG-tdTomato)Hze mice were used for aurein 1.2-+36-GFP-Cre and +36-GFP-Cre injection. The Rosa26-tdTomato mice were from the Jackson Laboratory. […] Mice were anesthetized by hypothermia on ice. Cochleostomies were performed by making an incision behind the ear to expose the cochlea. Glass micropipettes held by a micromanipulator were used to deliver the complex into the scala media, which allows access to inner ear hair cells. […]
To quantify the number of tdTomato positive cells after aurein 1.2-+36-GFP-Cre and +36-GFP-Cre, we counted the total number of inner and outer hair cells in a region spanning 100 μm in the apex, middle, and base turn of the cochlea.
Anesthetized postnatal day 2 (P2) mice were injected with 0.4 μL of 50 μM+36 GFP-Cre or aurein 1.2-+36 GFP-Cre solutions in the scala media to access the cochlear cells. […] Both the hair cells (Myo7a+) and supporting cells (Myo7a−) were evaluated for td Tomato signal.

Series [2] concerns cochlear hair cells and supporting cells of Rosa-tdTomato f/f mouse. The series is described as follows: Cre delivery into Rosa-tdTomato mouse cochlea in vivo (tdT labeling). Particulars: for tdT-labeled hair cells: near the injection site (base turn of cochlea). How it is done:
FIGS. 10A and 10B show the in vivo delivery of Cre recombinase to hair cells in the mouse inner ear. FIG. 10A: The scala media (cochlear duct) of P0 floxP-tdTomato mice (n=4) were injected with 0.3 μL of 23 μM (−30)GFP-Cre in 50% RNAiMAX or with RNAiMAX alone (control). […] Red=tdTomato; green=Myo7a; white=Sox2; blue=DAPI. Yellow brackets indicate the outer hair cell (OHC) region. […] Red=tdTomato; green=Esp, white=Sox2; blue=DAPI, Scale bars: 10 μm.
FIGS. 11A-11E show the high efficiency of protein delivery mediated by aurein in the inner ear in vivo. […] FIG. 11E: In Opti-MEM injected control mice no tdT labeling was detected in any inner ear cells. Scale bars: 10 μm.
The use of (−30)-GFP protein and a new positively charged (+36)-GFP protein to carry Cre, (−30)-GFP-Cre and (+36)-GFP-Cre, was tested for injection into mouse cochlea in vivo. The mouse used was Rosa-tdTomato^f/f in which functional Cre activity in the nuclei results in cells being labeled with tdT (red). It was shown that both (−30)-GFP-Cre and (+36)-GFP-Cre injections led to tdT expression in the cochlear hair cells.
It was next tested whether Aurein, an antimicrobial peptide, in combination with s-GFP, can serve as an effective carrier to deliver functional proteins into mouse inner ear cell types with high efficiency. (+36)-GFP-aurein-Cre was injected with different concentrations into P3 Rosa-tdT mouse inner ear by cochleostomy in vivo. The tissues were harvested 5 days later for immunolabeling to identify tdT^+ inner ear cell types. […] At 22.5 μM, 58% of OHC and 75% of IHC, as well as 8% of SC were tdT^+. At the highest 50 μM, 96% of OHC, 88% of IHC and 19% of SC were tdT^+. Some spiral ganglion neurons were also tdT^+ at 22.5 and 50 μM (FIGS. 11A-11E and FIG. 12).

Series [3] deals with BSR.LNL.tdTomato cells. Nature of the series: ATP-dependent cell viability assay (CELLTITER-GLO). Particulars: 1 μM, 48 h after treatment. As for the experimental part: (§1) FIGS. 15A, 15B are graphs showing the efficacy and toxicity of recombinant expression fusions of aurein 1.2 (“E”) and citropin 1.3 (“U”). […] The percentage of tdTomato positive cells was determined by flow cytometry. Protein fusions were delivered at 125 nM, 250 nM, 500 nM, and 1 μM. […] Protein fusions were delivered at 125 nM, 250 nM, 500 nM, and 1 μM. […] Cells were treated with 250 nM protein for 4 h in serum-free media. Cells were washed and supplanted with full DMEM and incubated for 48 h. Error bars represent the standard deviation of three independent biological replicates.
(§2) Uptake and delivery assays for Cre fusion proteins were performed as previously described (Cronican, J. J.; et al. ACS Chemical Biology 2010, 5, 747). Briefly, proteins were diluted in serum-free DMEM and incubated on the cells in 48-well plates for 4 h at 37° C. Following incubation, the cells were washed three times with PBS+20 U/mL heparin. The cells were incubated a further 48 h in serum-containing media prior to trypsinization and analysis by flow cytometry. […] Toxicity for alanine scan mutational analysis was determined with LIVE/DEAD fixable far-red dead cell stain (Life Technologies) with 635 nm laser and 670/30 nm filter.
Next, the toxicity of each fusion protein was evaluated at a range of concentrations (125 nM to 1 μM) using an ATP-dependent cell viability assay at 48 h after treatment.

For series [4], the system named is BSR.LNL.tdTomato cells. Nature of the series: primary screen for cytosolic delivery of Cre recombinase (fluorescence image analysis). It is filed as cell-based, hamster. How it is done: Initial screen of 20 peptide-(+36 GFP)-Cre conjugated proteins. Cytosolic Cre delivery results in recombination and tdTomato expression. The percentage of tdTomato positive cells was determined by fluorescence image analysis. […] Cells were washed and supplanted with full DMEM and incubated for 48 h. Error bars represent the standard deviation of three independent biological replicates.
BSR.LNL.tdTomato cells were plated at 10,000 cells per well in black 384-well plates (Aurora Biotechnologies). […] Following incubation, the cells were washed three times with PBS+20 U/mL heparin. The cells were incubated a further 48 h in serum-containing media. Cells were fixed in 3% paraformaldehyde and stained with Hoescht 33342 nuclear dye. Images were acquired on an ImageXpress Micro automated microscope (Molecular Devices) using a 4× objective (binning 2, gain 2), with laser- and image-based focusing (offset −130 μm, range ±50 μm, step 25 μm). Images were exposed for 10 ms in the DAPI channel (Hoechst) and 500 ms in the dsRed channel (tdTomato). Image analysis was performed using the cell-scoring module of MetaXpress software (Molecular Devices). All nuclei were detected with a minimum width of 1 pixel, maximum width of 3 pixels, and an intensity of 200 gray levels above background. […] In total, nine images were captured and analyzed per well, and 16 wells were treated with the same fusion protein. The primary screen was completed in biological triplicate.
Because Cre recombinase must enter the cell, escape endosomes, enter the nucleus, and catalyze recombination to generate tdTomato fluorescence, this assay reflects the availability of active, non-endosomal recombinase enzyme that reaches the nucleus.
The reporter BSR.LNL.tdTomato cells were incubated with 250 nM of each peptide-(+36 GFP)-Cre protein in serum-free media.

In series [5] the test system is glucocorticoid receptor (GR-mCherry) in HeLa cells. Nature of the series: GR-mCherry translocation assay. Format: cell-based. The note with it: 1 μM, 30 min. As for the experimental part: One day prior to transfection 10,000 HeLa cells in 200 μL of DMEM (10% FBS, 1× Pen-Strep) were plated into single wells of a 96-well MATRICAL glass bottom microplate (MGB096-1-2-LG-L) and allowed to adhere overnight. The following day, cells were transfected with GRmCherry using LIPOFECTAMINE® 2000 technologies. Following transfection, cells were allowed to recover overnight in DMEM (+10% FBS). The following day, cells were treated with dexamethasone (Dex) or 1 μM Dex-protein conjugate in the presence or absence of inhibitor diluted into DMEM (without phenol red, +300 nM Hoescht33342). After 30 min, cells were washed twice with 200 μL of HEPES-Krebs-Ringer's (HKR) buffer (140 mM NaCl, 2 mM KCl, 1 mM CaCl2, 1 mM MgCl2, and 10 mM HEPES at pH 7.4), after which 100 μL of HKR buffer was overlaid onto the cells and images were acquired on a Zeiss Axiovert 200M epifluorescence microscope outfitted with Ziess AxiocammRM camera and an EXFO-Excite series 120 Hg arc lamp. The translocation ratio (the ratio of median […] intensity in the nuclear and surrounding regions) for individual cells was measured using CELLPROFILER® as described 36. […]
Although endosomal escape is widely considered to be the major bottleneck of cationic protein delivery (Sahay, G.; et al. Nature Biotechnology 2013, 31, 653), few assays quantify the ability of proteins to escape endosomes on a single-cell basis.

The test system of series [6] is BSR.LNL.tdTomato cells. Nature of the series: Cre delivery assay of recombinant fusion proteins (flow cytometry). Format: cell-based, hamster. Particulars: 250 nM, fused to +36 GFP-Cre. How it is done: as §1
The percentage of tdTomato positive cells was determined by flow cytometry. […] Cells were washed and supplanted with full DMEM and incubated for 48 h.
as §2

No end group written: not given here. Bounds are passed on as bounds.

For the substance “+36 GFP-Cre: superpositively charged GFP fused to Cre recombinase, SEQ ID NO: 1”, the “Cre-mediated recombination in inner hair cells (IHC)” value in series [1] (apex, 50 μM) is recorded as 4.4%. The “tdT labeling of cochlear cells” value in series [2] (50 μM) was “very few IHC and HC were labeled with tdT”. Further, the tdT-labeled hair cells in series [2] is given as ~30%. The same substance had a viable cells in the series on BSR.LNL.tdTomato cells [3] of 85%. For the same substance, in the series with BSR.LNL.tdTomato cells [4] (250 nM protein with 100 μM chloroquine (positive control)), the recombined cells was 48%. Also, the “cells expressing tdTomato (recombined cells)” value in the series on BSR.LNL.tdTomato cells [4] (250 nM protein, 4 h serum-free, 48 h) was found to be 4.5%. “GLFDIIKKIAESF (listed as Litoria aurea) [aurein 1.2]”: the “potency of Cre delivery into cochlear hair cells when fused with aurein 1.2 versus absence of the peptide” value in series [1] (live mice) is reported as > 20 fold. With “Arg8^Dex: dexamethasone-labeled canonical cell permeable peptide Arg8, SEQ ID NO: 102 (RRRRRRRR; also: dexamethasone label, site not given here)”, in series [5], the “nuclear-to-cytoplasm translocation ratio (TR)” value worked out at 1.63. On to GLFDIIKRIAESF [K8R], for which the “overall recombination efficiency of aurein 1.2 variants” value in the series on BSR.LNL.tdTomato cells [6] is given as “potentially improved overall recombination efficiency”. As for GLFDIIKKIAEAF [S12A], in the series with BSR.LNL.tdTomato cells [6], the “overall recombination efficiency of aurein 1.2 variants” value was “potentially improved overall recombination efficiency”.

With GLFDIIKKVASVIGGL [citropin 1.3], the “level of recombination in the primary screen” value in the series on BSR.LNL.tdTomato cells [4] (250 nM sortase conjugate of +36 GFP-Cre) is reported as “moderate level of recombination”.

On to “(−30)-GFP-Cre: negatively supercharged GFP fused to Cre recombinase, SEQ ID NO: 4”, for which, in series [2], the tdT-labeled hair cells is ~30%. For the same substance, in series [2] (ten days after delivery, 23 μM in 50% RNAiMAX), the “stereocilia of tdTomato-positive outer hair cells” value is “intact espin (Esp)-expressing stereocilia of tdTomato-positive outer hair cells were present”.

For the origin of these results see patent US11071790B2, “Method for efficient delivery of therapeutic molecules in vitro and in vivo” (Massachusetts Eye and Ear Infirmary, priority 2014, dated 2021).
